Reference: patent publication US20240043473A1, “NOOTROPIC PEPTIDES FOR TREATING LYSOSOMAL STORAGE DISEASES” (Phoenix Nest Inc., priority 2021, published 2024)
Entries after “also recorded” stand apart in the source; their conditions may differ. No end group written: not given here.

Experiments:
Format in all cases: in vivo, mouse
[1] = tested on: Hgsnat^P304L MPS IIIC mice; experiment: Open Field test; details: for Open Field behaviour in WT mice vs saline: chronic daily treatment
Protocol: Method: Open field test that explores behaviour of animals in open area. Rodents normally avoid the center of the arena (anxiety reflex) and spend certain time immobile (freezing reflex). […]
The open-field test was performed as previously described. Briefly, mice were habituated in the experimental room for 45 mins before the commencement of the test. Each mouse was then gently placed in the center of the open-field arena and allowed to explore for 20 min. The mouse was removed and transferred to its home cage after the test, and the arena was cleaned with 70% ethanol before the commencement of the next test. Analysis of the behavioral activity was done using the Smart video tracking software (v3.0, Panlab Harvard Apparatus), and total distance traveled and percent of time spent in the center zone were measured for hyperactivity and anxiety assessment, respectively.
(§1) Starting from 3 weeks of age, WT C57B16 and homozygous Hgsnat^P304L male and female mice were randomly divided in treatment and control groups (6-13 mice/sex/genotype/treatment; see Table I). The control group was daily administered with saline (5 μL to each nostril), while for the treatment group, saline was supplemented with 125 µg of AVP6/mL, which would result in a dose of approximately 50 μg/kg BW/day. The peptide formulation was prepared once, aliquoted and kept frozen at −80° C. until use. At 4 months, all mice were studied by EPM, OF, YM and NOR behavioral tests. Administration of the drug or saline was continued through the days on which the assays were conducted. Then approximately at 5 months 4-5 mice in each group were sacrificed. Their blood plasma was collected, and their tissues were either snap-frozen or fixed and cryopreserved to analyze CNS pathology as described above. For the remaining mice, treatment was continued and their behaviour was studied again at the age of 6 months using OF. NOR and YM tests. Starting from the age of 8 months, Hgsnat^P304L treated and untreated mice were daily studied for the signs of urinary retention. When such signs were detected, the mice were studied by ERG and sacrificed within 1-2 days. Finally, the remaining treated and untreated WT mice were studied by ERG and sacrificed at the end of the study, approximately at 10 months of age.
We further tested if AVP6 can rescue neurobehavioral deficits associated with synaptic dysfunction in MPS IIIC mice. The early phase of the disease in both Hgsnat-Geo and Hgsnat^P304L mice manifests with reduced anxiety and hyperactivity. Specifically, in an Open Field (OF) test at both 4 months and 6 months, Hgsnat^P304L mice show a significant increase in a total distance traveled, increased time spent at the center of the arena and increased distance traveled in the center of the arena as compared with the WT animals. […] […] Control groups were treated with the same volume of saline.

β-hexosaminidase = experiment: Total β-hexosaminidase activity in brain homogenates; details: chronic daily 50 μg/kg BW, vs saline
Protocol: The activity of β-hexosaminidase was measured by combining 2.5 μl of 10× diluted homogenate ([…] of protein) with 15 μl of 0.1 M sodium acetate buffer (pH 4.2), and 12.5 μl of 3 mM 4-methylumbelliferyl N-acetyl-β-D-glucosaminide (Sigma-Aldrich) followed by incubation for 30 min at 37° C. The reaction was stopped 0.4 M glycine buffer (pH 10.4) and fluorescence was measured as above.
as §1, with “For the remaining mice, treatment was continued and their behaviour was studied again at the age of 6 months using OF. NOR and YM tests. Starting from the age of 8 months, Hgsnat^P304L treated and untreated mice were daily studied for the signs of urinary retention.” left out, “Finally, the remaining treated and untreated WT mice were studied by ERG and sacrificed at the end of the study, approximately at 10 months of age.” left out

Hgsnat^P304L mice = experiment: Survival / onset of lethal urinary retention under chronic daily treatment; details: chronic daily 50 μg/kg BW; AVP6-treated Hgsnat^P304L mice
Protocol: Starting from 3 weeks of age, WT C57B16 and homozygous Hgsnat^P304L male and female mice were randomly divided in treatment and control groups (6-13 mice/sex/genotype/treatment; see Table I). The control group was daily administered with saline (5 μL to each nostril), while for the treatment group, saline was supplemented with 125 µg of AVP6/mL, which would result in a dose of approximately 50 μg/kg BW/day. The peptide formulation was prepared once, aliquoted and kept frozen at −80° C. until use. At 4 months, all mice were studied by EPM, OF, YM and NOR behavioral tests. Administration of the drug or saline was continued through the days on which the assays were conducted. Then approximately at 5 months 4-5 mice in each group were sacrificed. […] When such signs were detected, the mice were studied by ERG and sacrificed within 1-2 days. […]
Unlike human MPS III patients, Hgsnat^P304L mice at the age of approximately 8 months develop urinary retention resulting in abdominal distension and requiring humane euthanasia. […] Previously we determined the average survival age of Hgsnat^P304L mice as 42 weeks. To test whether the AVP6 treatment delayed development of this phenotype, mice in both treatment and vehicle groups were examined for the signs of urinary retention on a daily basis, starting from the age of 7 months, and immediately sacrificed, when abdominal distension was detected. […]

[2] = tested on: Hgsnat-Geo and Hgsnat^P304L MPS IIIC mice; experiment: Novel Object Recognition test; details: single dose 17 hours before the test
[3] = chronic daily intranasal 50 μg/kg BW from 3 weeks, Hgsnat^P304L male and female mice at 4 months
[4] = chronic daily intranasal 50 μg/kg BW from 3 weeks, Hgsnat^P304L mice at 6 months
[5] = single intranasal 50 μg/kg 17 h before test, Hgsnat^P311L (P304L) mice, 4 and 6 months

AVP6: N-terminally acetylated Semax, a nootropic peptide having the amino acid sequence of MEHFPGP (SEQ ID NO:1) (Ac-MEHFPGP)
hyperactivity (total distance traveled), Open Field [1, 3]: showed absence of these phenotypes; also recorded: show the rescue of all above deficits | reduced anxiety (time spent in the center), Open Field [1, 3]: showed absence of these phenotypes; also recorded: show the rescue of all above deficits | hyperactivity (total distance traveled), Open Field [1, 4]: significantly reduced; also recorded: show rescue of all above deficits | reduced anxiety (time spent in the center), Open Field [1, 4]: significantly reduced; also recorded: show rescue of all above deficits | Open Field behaviour in WT mice vs saline ([1]; WT mice at 4 months): no difference was observed | Open Field behaviour in WT mice vs saline ([1]; WT mice at 6 months): No difference in behaviour was observed | hyperactivity (total distance traveled), Open Field [1, 5]: rescues hyperactivity; also recorded: the total traveled distance was reduced; also recorded: Both parameters are normalized | reduced anxiety (time spent / distance traveled in the center), Open Field [1, 5]: rescues hyperactivity and reduced anxiety; also recorded: time spend in the center increased; also recorded: Both parameters are normalized | total β-hexosaminidase activity in total brain homogenates (β-hexosaminidase; Hgsnat^P304L mice at 5 months): remained similar | total β-hexosaminidase activity in brain homogenates (β-hexosaminidase; Hgsnat^P304L mice at terminal timepoint): trend for reduction | average survival age / life span (Hgsnat^P304L mice): 49 weeks | behaviour in Novel Object Recognition test after single dose [2]: did not improve behaviour
